Results published in patent publication US8557872B2, “Compounds, isomer thereof, or pharmaceutically acceptable salts thereof as vanilloid receptor antagonist; and pharmaceutical compositions containing the same” (Amorepacific Corporation, priority 2008, dated 2013).
pIC50: −log10 of the molar value. Where two headings read alike, the source gives them in different places.

Legend:
[1] = PK study in rats, single oral administration; assay type: in vivo, rat; parameters: AUC: concentration or dose not given beside the values; details: for AUC / Tmax / Cmax / half-life: rat, single oral administration, plasma
Procedure: Pharmacokinetics of compounds in rats were analyzed using the following experiment. Rats were fasted overnight prior to administration and until approximately 4 hours after administration. Rats were given a single oral administration of compound at same dose. Administration volume was 10 ml/kg. Blood samples were collected from the retro-orbital sinus at various times over the following 7 hrs. Immediately after each collection, plasmas were separated from blood cells by centrifugation and stored at −20° C. until the analysis was performed. The plasma samples were analyzed using a reverse phase high-performance chromatography (HPLC) method.

vanilloid receptor = target: T1, vanilloid receptor (Rattus norvegicus, UniProt O35433); assay: 45Ca influx test (calcium uptake) in primary cultured DRG neurons, capsaicin 0.5 μM; assay type: cell-based
T1 construct: DRG nerve cells from the primary culture of 2 days were equilibrated by washing 4 times; endogenous in cells; host or cells: primary culture of dorsal root ganglion neurons from neonatal SD rats
Procedure: 1) Separation of Spinal Dorsal Root Ganglia (DRG) in Newborn Rats and Primary Culture Thereof
Neonatal (2-3 day old or younger than 2-3 day old) SD rats were put in ice for 5 minutes to anesthetize and disinfected with 70% ethanol. […] The DRG were incubated sequentially at 37° C. for 30 mins in 200 U/ml collagenase and 2.5 mg/ml trypsin, separately. The ganglia were washed twice with DME/F12 medium supplemented with 10% horse serum, triturated through a fire-polished Pasteur pipette, filtered through Nitex 80 membrane to obtain single cell suspension and the suspension was washed once more. This was subjected to centrifugation, then resuspended in cell culture medium at certain level of cell density. As the cell culture medium, DME/F12 medium supplemented with 10% horse serum was diluted with identical medium conditioned by C6 glioma cells 2 days on a confluent monolayer (1:1), and NGF (Nerve Growth Factor) was added to adjust 200 ng/ml as final concentration. After the cells were grown 2 days in medium where cytosine arabinoside (Ara-C, 100 μM) was added to kill dividing nonneuronal cells, medium was changed to one without Ara-C. The resuspended cells were plated at a density of 1500-2000 neurons/well onto Terasaki plates previously coated with 10 μg/ml poly-D-ornithine.
2) ^45Ca Influx Experiments
DRG nerve cells from the primary culture of 2 days were equilibrated by washing 4 times with HEPES (10 mM, pH 7.4)-buffered Ca^2+, Mg^2+-free HBSS (H-HBSS). The solution in each well was removed from the individual well. Medium containing the test compound plus capsaicin (final concentration 0.5 μM) and ^45Ca (final concentration 10 μCi/ml) in H-HBSS was added to each well and incubated at room temperature for 10 mins. Terasaki plates were washed five times with H-HBSS and dried at room temperature. To each well, 0.3% SDS (10 μl) was added to elute ^45Ca. After the addition of scintillation cocktail of into each well, the amount of ^45Ca influx into neuron was measured by counting radioactivity.

[2] = Table 3, detection limit 0.100 mcg/ml
[3] = comparison with comparative compounds F and G, read-out: IC50 value
[4] = Table 4, detection limit 0.100 mcg/ml
[5] = rat DRG neurons, capsaicin 0.5 μM, 45Ca, read-out: Antagonist Calcium Uptake Test (IC50)
[6] = Table 2, read-out: T½ (converted)
[7] = Table 3, comparative compounds having tert-butyl-phenyl, read-out: IC50

T1 sequence (O35433 whole entry): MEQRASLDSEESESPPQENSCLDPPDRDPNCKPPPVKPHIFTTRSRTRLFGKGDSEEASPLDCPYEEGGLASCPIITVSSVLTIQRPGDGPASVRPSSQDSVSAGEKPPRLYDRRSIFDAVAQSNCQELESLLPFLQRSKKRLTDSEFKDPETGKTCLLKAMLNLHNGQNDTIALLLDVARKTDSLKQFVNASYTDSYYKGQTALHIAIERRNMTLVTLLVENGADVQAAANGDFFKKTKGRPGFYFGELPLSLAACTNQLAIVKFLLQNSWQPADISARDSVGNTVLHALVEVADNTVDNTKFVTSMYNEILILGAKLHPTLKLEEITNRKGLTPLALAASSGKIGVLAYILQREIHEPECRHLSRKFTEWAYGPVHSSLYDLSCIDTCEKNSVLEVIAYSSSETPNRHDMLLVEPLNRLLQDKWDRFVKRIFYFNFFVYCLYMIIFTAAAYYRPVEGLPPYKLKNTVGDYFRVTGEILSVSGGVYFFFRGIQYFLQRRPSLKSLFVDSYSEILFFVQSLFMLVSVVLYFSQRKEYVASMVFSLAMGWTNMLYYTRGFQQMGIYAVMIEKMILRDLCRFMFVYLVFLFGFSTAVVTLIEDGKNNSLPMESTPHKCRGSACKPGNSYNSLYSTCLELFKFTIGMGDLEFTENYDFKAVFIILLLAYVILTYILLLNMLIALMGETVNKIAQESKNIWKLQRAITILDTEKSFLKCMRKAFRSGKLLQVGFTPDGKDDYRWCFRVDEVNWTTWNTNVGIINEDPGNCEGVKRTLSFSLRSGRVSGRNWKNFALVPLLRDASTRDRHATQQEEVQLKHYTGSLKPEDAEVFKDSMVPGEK

Row | Compound | pIC50 (vanilloid receptor; [5]) | AUC ([1]; Table 2) [ng·h/mL] | Cmax ([1]; Table 2) [ng/mL] | Tmax ([1]; Table 2) [h] | half-life [1, 6] [h] | also measured
1 | CC(C)(C)c1ccc(/C=C/C(=O)NCc2cc(F)c(NS(C)(=O)=O)c(F)c2)cc1 [Comp Cpd B, reference compound] | – | – | – | – | – | AUC ([1]; Table 3): 72 ng·h/mL; Tmax ([1]; Table 3): 0.5 h; Cmax [1, 2]: 69 ng/mL; half-life ([1]; Table 3, read-out: T½ (converted)): 0.462 h
2 | C[C@@H](NC(=O)/C=C/c1ccc(C(F)(F)F)cc1)c1cc(F)c(NS(C)(=O)=O)c(F)c1 [Comp Cpd G, reference compound] | – | – | – | – | – | pIC50 (vanilloid receptor; Table 4, comparative compounds having CF3-phenyl, read-out: IC50): < 5.00; pIC50 (vanilloid receptor; [3]): < 5.00; PK properties (in terms of T max and AUC) ([1]; oral, in words): poor PK-properties; Cmax [1, 4]: < 100 ng/mL
3 | CCCc1cc(C(C)(C)C)ccc1/C=C/C(=O)N[C@H](C)c1cc(F)c(NS(C)(=O)=O)c(F)c1 [Comp Cpd E, reference compound] | – | – | – | – | – | pIC50 (vanilloid receptor; [7]): 5.64; Cmax [1, 2]: < 100 ng/mL
4 | CCCOc1cc(C(F)(F)F)ccc1/C=C/C(=O)N[C@H](C)c1cc(F)c(NS(C)(=O)=O)c(F)c1 [Example 5, (R)—N-[1-(3,5-Difluoro-4-methanesulfonylamino-phenyl)-ethyl]-3-(2-propoxy-4-trifluoromethyl-phenyl)-acrylamide] | 6.92 | 22500 | 2630 | 3.5 | 4.3 | –
5 | C=Cc1cc(CNC(=O)/C=C/c2ccc(C(F)(F)F)cc2)ccc1NS(C)(=O)=O [Comp Cpd F, reference compound] | – | – | – | – | – | pIC50 (vanilloid receptor; [3]): 6.24; AUC ([1]; Table 4): 40100 ng·h/mL; Tmax ([1]; Table 4): 2 h; Cmax [1, 4]: 5000 ng/mL; half-life ([1]; Table 4, read-out: T1/2 (converted)): 4.59 h
6 | C=Cc1cc(CNC(=O)/C=C/c2ccc(C(C)(C)C)cc2)cc(F)c1NS(C)(=O)=O [Comp Cpd A, reference compound] | – | – | – | – | – | Cmax [1, 2]: < 100 ng/mL
7 | CCCNc1cc(C(F)(F)F)ccc1/C=C/C(=O)NCc1cc(F)c(NS(C)(=O)=O)c(F)c1 [Example 2, N-(3,5-Difluoro-4-methanesulfonylamino-benzyl)-3-(2-propylamino-4-trifluoromethyl-phenyl)-acrylamide] | 6.77 | 7150 | 1420 | 2 | 3.55 | –
8 | CCCNc1cc(C(C)(C)C)ccc1/C=C/C(=O)NCc1cc(F)c(NS(C)(=O)=O)c(F)c1 [Comp Cpd D, reference compound] | – | – | – | – | – | pIC50 (vanilloid receptor; [7]): 7.07; Cmax [1, 2]: < 100 ng/mL
9 | CCCNc1cc(C(F)(F)F)ccc1/C=C/C(=O)N[C@H](C)c1cc(F)c(NS(C)(=O)=O)c(F)c1 [Example 1, (R)—N-[1-(3,5-Difluoro-4-methanesulfonylamino-phenyl)-ethyl]-3-(2-propylamino-4-trifluoromethyl-phenyl)-acrylamide] | 7.72 | 1940 | 466 | 3.5 | 1.4 | –
10 | C=Cc1cc(CNC(=O)/C=C/c2ccc(C(C)(C)C)cc2NC(C)C)cc(F)c1NS(C)(=O)=O [Comp Cpd C, reference compound] | – | – | – | – | – | Cmax [1, 2]: < 100 ng/mL
11 | CCC(C)Oc1cc(C(F)(F)F)ccc1/C=C/C(=O)N[C@H](C)c1cc(F)c(NS(C)(=O)=O)c(F)c1 (stereo partly drawn) [Example 39, (R)-3-(2-sec-Butoxy-4-trifluoromethyl-phenyl)-N-[1-(3,5-difluoro-4-methanesulfonylamino-phenyl)-ethyl]-acrylamide] | 7.66 | – | – | – | – | –

Continued, in another order:

Row | pIC50 (vanilloid receptor; [5]) | AUC ([1]; Table 2) [ng·h/mL] | Cmax ([1]; Table 2) [ng/mL] | Tmax ([1]; Table 2) [h] | half-life [1, 6] [h] | Compound | also measured
12 | 7.36 | 5690 | 1190 | 2 | 2.08 | CCCCc1cc(C(F)(F)F)ccc1/C=C/C(=O)N[C@H](C)c1cc(F)c(NS(C)(=O)=O)c(F)c1 [Example 24, (R)-3-(2-Butyl-4-trifluoromethyl-phenyl)-N-[1-(3,5-difluoro-4-methanesulfonylamino-phenyl)-ethyl]-acrylamide] | –
13 | – | 5320 | 772 | 2 | 4.05 | C=Cc1cc(CNC(=O)/C=C/c2ccc(C(F)(F)F)cc2NC(C)C)cc(F)c1NS(C)(=O)=O [Example 54, N-(3-fluoro-4-methanesulfonylamino-5-vinyl-benzyl)-3-(2-isopropylamino-4-trifluoromethyl-phenyl)-acrylamide] | pIC50 (vanilloid receptor; [3]): 7.57
14 | 6.80 | 19200 | 3660 | 2 | 2.58 | CCCc1cc(C(F)(F)F)ccc1/C=C/C(=O)NCc1cc(F)c(NS(C)(=O)=O)c(F)c1 [Example 22, N-(3,5-Difluoro-4-methanesulfonylamino-benzyl)-3-(2-propyl-4-trifluoromethyl-phenyl)-acrylamide] | –
15 | 7.72 | 16400 | 2720 | 2 | 3.5 | CCCc1cc(C(F)(F)F)ccc1/C=C/C(=O)N[C@H](C)c1cc(F)c(NS(C)(=O)=O)c(F)c1 [Example 21, N-[1-(3,5-Difluoro-4-methanesulfonylamino-phenyl)-ethyl]-3-(2-propyl-4-trifluoromethyl-phenyl)-acrylamide] | –
16 | 7.59 | – | – | – | – | CCCc1cc(C(F)(F)F)cc(CCC)c1/C=C/C(=O)N[C@H](C)c1cc(F)c(NS(C)(=O)=O)c(F)c1 [Example 6, (R)—N-[1-(3,5-Difluoro-4-methanesulfonylamino-phenyl)-ethyl]-3-(2,6-dipropyl-4-trifluoromethyl-phenyl)-acrylamide] | –
17 | 5.48 | – | – | – | – | CS(=O)(=O)Nc1c(F)cc(CNC(=O)/C=C/c2ccc(C(F)(F)F)cc2N2CCCCC2)cc1F [Example 51, N-(3,5-Difluoro-4-methanesulfonylamino-benzyl)-3-(2-piperidin-1-yl-4-trifluoromethyl-phenyl)-acrylamide] | –
18 | 6.82 | – | – | – | – | CC(C)Oc1cc(C(F)(F)F)ccc1/C=C/C(=O)NCc1cc(F)c(NS(C)(=O)=O)c(F)c1 [Example 20, N-(3,5-Difluoro-4-methanesulfonylamino-benzyl)-3-(2-isopropoxy-4-trifluoromethyl-phenyl)-acrylamide] | –
19 | 5.85 | – | – | – | – | CCCc1cc(C(F)(F)F)ccc1/C=C(\C)C(=O)N[C@H](C)c1ccc(NS(C)(=O)=O)c(F)c1 [Example 49, (R)—N-[1-(3-Fluoro-4-methanesulfonylamino-phenyl)-ethyl]-2-methyl-3-(2-propyl-4-trifluoromethyl-phenyl)-acrylamide] | –
